For test [1], the target named is T1, 5HT6-human recombinant receptor (Homo sapiens, UniProt P50406). Nature of the test: Binding to serotonin receptor 5HT6 ([3H]-LSD radioligand displacement). More on the design: purchased Receptor Biology; host or cells: HEK-293 cells (membranes). Particulars: membranes of HEK-293 cells expressing 5HT6-human recombinant receptor; [3H]-LSD 2.7 nM; 60 min, 37° C. The protocol: Binding to Serotonin Receptor 5HT6
Cell membranes of HEK-293 cells expressing the 5HT6-human recombinant receptor were supplied by Receptor Biology. In said membranes the receptor concentration is 2.18 pmol/mg protein and the protein concentration is 9.17 mg/ml. The experimental protocol follows the method of B. L. Roth et al. [B. L. Roth et al., The Journal of Pharmacology and Experimental Therapeutics, 1994, 268. 1403] with the following slight changes. The respective part of the literature description is hereby incorporated by reference and forms part of the disclosure.
The commercial membrane is diluted (1:40 dilution) with the binding buffer: 50 mM Tris-HCl, 10 mM MgCl2, 0.5 mM EDTA (pH 7.4). The radioligand used is [^3H]-LSD at a concentration of 2.7 nM with a final volume of 200 μl. incubation is initiated by adding 100 μl of membrane suspension, (≈22.9 μg membrane protein), and is prolonged for 60 minutes at a temperature of 37° C. The incubation is ended by fast filtration in a Brandel Cell Harvester through fiber glass filters made by Schleicher & Schuell GF 3362 pretreated with a solution of polyethylenimine at 0.5%. The filters are washed three times with three milliliters of buffer Tris-HCl 50 mM pH 7.4. The filters are transferred to flasks and 5 ml of Ecoscint H liquid scintillation cocktail are added to each flask. The flasks are allowed to reach equilibrium for several hours before counting with a Wallac Winspectral 1414 scintillation counter. Non-specific binding is determined in the presence of 100 μM of serotonin. Tests were made in triplicate. The inhibition constants (Ki, nM) were calculated by non-linear regression analysis using the program EBDA/LIGAND described in Munson and Rodbard, Analytical Biochemistry, 1980, 107, 220, which is hereby incorporated by reference and forms part of the disclosure.

The conditions of test [2]: in words; Fisas, A. et al., Brit. J. Pharm. 2006; cited from earlier work.
Test [3] deals with T1, 5HT6-human recombinant receptor. Particulars: in words; Fisas, A. et al., Brit. J. Pharm. 2006; cited from earlier work.

Where a name gives a salt, the structure may show the parent alone.

T1 sequence (P50406 whole entry): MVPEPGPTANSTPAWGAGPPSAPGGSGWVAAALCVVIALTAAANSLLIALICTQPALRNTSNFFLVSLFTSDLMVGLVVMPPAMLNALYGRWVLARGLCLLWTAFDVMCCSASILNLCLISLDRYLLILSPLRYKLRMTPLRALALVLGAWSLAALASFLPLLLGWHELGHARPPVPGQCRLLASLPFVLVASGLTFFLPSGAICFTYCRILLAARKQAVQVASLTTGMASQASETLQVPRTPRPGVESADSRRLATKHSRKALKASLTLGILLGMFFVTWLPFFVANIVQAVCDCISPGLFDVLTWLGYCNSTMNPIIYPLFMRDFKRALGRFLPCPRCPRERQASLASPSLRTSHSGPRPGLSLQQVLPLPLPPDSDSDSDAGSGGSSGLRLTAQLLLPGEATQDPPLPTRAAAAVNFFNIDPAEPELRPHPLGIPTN

The Ki is a measure of affinity in units of concentration, obtained from inhibition or displacement. Regarding `O=C1CCc2ccc(NS(=O)(=O)c3c(Cl)nc4n3CCS4)cc21` [Compound 10, 6-Chloro-2,3-dihydro-imidazo[2,1-b] thiazole-5-sulfonic acid (3-oxo-indan-5-yl)-amide], the Ki in test [1] is 46 nM.

For the compound `CN(C)CCc1c[nH]c2ccc(NS(=O)(=O)c3ccc4c(Cl)cccc4c3)cc12` [Compound E-6837, 5-chloro-N[3-(2-(dimethylamino)ethyl)-1H-indol-5-yl] naphthalene-2-sulphonamide], in test [2], the body weight result is “significant body weight loss” and the food intake result was “reduction in the food intake”. Also, the “binding for the recombinant human 5-HT6 receptor” value in test [3] was “selective and high affinity binding”.

For `O=S(=O)(Nc1ccc2c(c1)CCNC2)c1c(Cl)nc2n1CCS2` [Compound 1, 6-Chloro-2,3-dihydro-imidazo[2,1-b] thiazole-5-sulfonic acid (1,2,3,4-tetrahydro-isoquinolin-6-yl)-amide hydrochloride], in test [1], the Ki is 8.4 nM.

Consider `CC(=O)N1CCc2cc(NS(=O)(=O)c3c(Cl)nc4n3CCS4)ccc21` [Compound 4, 6-Chloro-2,3-dihydro-imidazo[2,1-b] thiazole-5-sulfonic acid (1-acetyl-2,3-dihydro-1H-indol-5-yl)-amide], for which the Ki in test [1] came out at 5.4 nM.

Regarding `CN(C)CCc1c[nH]c2ccc(NS(=O)(=O)c3c(Cl)nc4n3CCS4)cc12` [Compound 3, 6-Chloro-2,3-dihydro-imidazo[2,1-b] thiazole-5-sulfonic acid [3-(2-dimethylamino-ethyl)-1H-indol-5-yl]-amide hydrochloride], in test [1], the inhibitory constant (Ki) came to 16.9 nM.
